Non-standard residues stand in square brackets, D forms with d. Residues, ends and D or L forms follow the SMILES beside them. No end group written: not given here.
How the values were obtained:
A. baumannii ATCC 19,606 [1] = assay: Peptide stability in human plasma (MIC/MBC after pre-incubation); type: cell-based, Acinetobacter baumannii; conditions: peptide mixed with pure human plasma, 1 h, 37 °C, then two-fold diluted in MHB, bacteria 24 h
Experimental: (§1) Minimum inhibitory concentration (MIC) of peptides and antibiotics was assessed by a modified version of the broth microdilution method from the Clinical and Laboratory Standards Institute (CLSI) as previously described. In brief, mid-log phase growths of microbial strains were cultured in Müeller-Hinton broth (MHB) with an initial inoculum of 2–8 × 10^5 CFU/mL. Bacteria suspensions were incubated in sterile 96-well plates with test agents at desired concentrations. […] Minimum bactericidal concentration (MBC) determination was performed using a modified version of the colony count assay. In brief, fifty µl of all non-turbid wells from MIC experiments were spread on agar plates. The MBC value was defined as the lowest concentration of peptides with no colony growth on the plate. All assays were performed in triplicate.
(§2) The MIC and MBC assays were performed after peptide was exposed to various conditions, including proteolytic enzymes, serum salts and human plasma. […] To determine peptide sensitivity to physiological salts, approximately 5 × 10^5 CFU/ml of A. baumannii ATCC 19,606 was mixed with the MHB containing different physiological salts at final concentration as follows: 150 mM NaCl, 4.5 mM KCl, 1 mM MgCl2, 6 µM NH4Cl, 8 µM ZnCl2, 4 µM FeCl3 and […]. After treatment, the MIC was evaluated as described in 2.4. To test the stability of peptides in human plasma, peptide was mixed with pure human plasma, and the mixture was incubated for 1 h at 37 °C. Then, the mixture was two-fold serially diluted with sterile MHB. The peptides at final concentrations of 0.98 to 250 µg/ml were incubated with an equal volume of bacterial suspension at 37 °C for 24 h. MIC values were determined as described in 2.4.

[2] = test system: mouse fibroblast (L929) cells; assay: In vitro cytotoxicity assay (MTT); type: cell-based; conditions: 24 h
Experimental: The colorimetric 3-(4,5 dimethylthiazol-2-yl)-2,5-diphenyltetrazolium bromide (MTT; Invitrogen) dye reduction assay was used to determine the cytotoxicity of peptides on mouse fibroblast (L929) cells (NCTC clone 929) according to a modified MTT assay. L929 cells were cultured in Dulbecco’s Modified Eagle Medium (DMEM; Gibco) containing 10% fetal bovine serum (FBS; Gibco) and 100 U/ml penicillin–streptomycin in a fully humidified atmosphere of 95% air and 5% CO2 at 37 °C. The cells (10^5 cells/well) were seeded on 96-well plates and incubated with serially diluted peptide (0.98 to 250 μg/ml) for 24 h. At the end of incubation period, MTT solution (100 µl, 0.4 mg/ml) was added to each well and incubated for 4 h. The supernatants were removed and replaced by 100 µl of DMSO to dissolve the purple formazan crystals. Absorbance was measured using a MultiskanTM FC microplate reader at a wavelength of 570 nm. Cells without peptides served as negative controls. Cell viability (percentage) was calculated using the following equation: %Cell viability=OD570of treated sample-ODBlank/OD570of control-ODBlank×100%

A. baumannii ATCC 19,606 [3] = assay: Peptide stability to proteolytic enzymes (MIC/MBC after pre-incubation); type: cell-based, Acinetobacter baumannii; conditions: for MBC, control / MIC, control: control: absence of human plasma and proteolytic enzymes, A. baumannii ATCC 19,606; for MBC in the presence of pepsin / MIC in the presence of pepsin: peptide pre-incubated with 1 mg/ml pepsin
Experimental: as §1, §2

[4] = test system: Pseudomonas aeruginosa ATCC 27,853; type: cell-based; conditions: P. aeruginosa ATCC 27,853; broth microdilution, MHB, 24 h, 37 °C, triplicate
From the text: (§3) Ten strains of both Gram-positive and -negative bacteria, including Staphylococcus aureus ATCC 25,923, S. epidermidis ATCC 12,228, Bacillus cereus ATCC 11,778, Listeria monocytogenes 10403S, Salmonella typhimurium ATCC 13,311, Pseudomonas aeruginosa ATCC 27,853, Shigella sonnei ATCC 11,060, A. baumannii ATCC 19,606, Escherichia coli ATCC 25,922 and E. coli O157:H7, were used in this study. Eight clinical isolates of multidrug-resistant (MDR) and extensively drug-resistant (XDR) A. baumannii, isolated from human (blood, sputum, respiratory sample, sterile site sample and urine), were kindly provided by Asst. Prof. Dr. Sakawrat Kanthawong (Faculty of Medicine, Khon Kaen University, Thailand) (Table S1). All bacterial strains, excluding L. monocytogenes 10403S and E. coli, were cultured in tryptic soy broth (TSB). L. monocytogenes was grown in TSB supplemented with 0.6% yeast extract (TSB-YE), and E. coli was cultured in Luria broth (LB). All of bacteria were cultured at 37 °C with continuous shaking at 220 rpm.
as §1

[5] = test system: Staphylococcus epidermidis ATCC 12,228; type: cell-based; conditions: S. epidermidis ATCC 12,228; broth microdilution, MHB, 24 h, 37 °C, triplicate
From the text: as §3, §1

[6] = test system: Listeria monocytogenes 10403S; type: cell-based; conditions: L. monocytogenes 10403S; broth microdilution, MHB, 24 h, 37 °C, triplicate
From the text: as §3, §1

[7] = test system: Bacillus cereus ATCC 11,778; type: cell-based; conditions: B. cereus ATCC 11,778; broth microdilution, MHB, 24 h, 37 °C, triplicate
From the text: as §3, §1

[8] = test system: Escherichia coli ATCC 25,922; type: cell-based; conditions: E. coli ATCC 25,922; broth microdilution, MHB, 24 h, 37 °C, triplicate
From the text: as §3, §1

[9] = test system: Shigella sonnei ATCC 11,060; type: cell-based; conditions: S. sonnei ATCC 11,060; broth microdilution, MHB, 24 h, 37 °C, triplicate
From the text: as §3, §1

[10] = test system: Escherichia coli O157:H7 MT strain; type: cell-based; conditions: E. coli O157:H7 MT strain; broth microdilution, MHB, 24 h, 37 °C, triplicate
From the text: as §3, §1

[11] = test system: Salmonella Typhimurium ATCC 13,311; type: cell-based; conditions: S. Typhimurium ATCC 13,311; broth microdilution, MHB, 24 h, 37 °C, triplicate
From the text: as §3, §1

[12] = test system: Staphylococcus aureus ATCC 25,923; type: cell-based; conditions: S. aureus ATCC 25,923; broth microdilution, MHB, 24 h, 37 °C, triplicate
From the text: as §3, §1

[13] = peptide pre-incubated with 1 mg/ml proteinase K, 37 °C, 1 h
[14] = peptide pre-incubated with 1 mg/ml trypsin, 37 °C, 1 h

CC[C@@H](C)[C@@H](NC(=O)[C@@H](CCCCN)NC(=O)CNC(=O)[C@@H](C)NC(=O)[C@H](NC(=O)[C@@H](CCCCN)NC(=O)[C@@H](CCCCN)NC(=O)[C@H](NC(=O)[C@@H](CCCNC(=N)N)NC(=O)[C@@H](CCCNC(=N)N)NC(=O)[C@@H](Cc1ccccc1)NC(=O)[C@@H](CC(C)C)NC(=O)[C@H](N)CCCNC(=N)N)C(C)C)C(C)C)C(=O)N[C@H](C)C(=O)N[C@H](CCCCN)C(=O)N[C@H](CCCNC(=N)N)C(=O)N[C@@H](C(=O)N[C@H](Cc1c[nH]c2ccccc12)C(=O)N[C@H](CCCCN)C(N)=O)[C@H](C)CC [D-AP19] (H-[dR][dL][dF][dR][dR][dV][dK][dK][dV][dA]G[dK][dI][dA][dK][dR][dI][dW][dK]-NH2)
MBC in the presence of human plasma (A. baumannii ATCC 19,606 [1]): 31.25(31.25) µg/ml | MIC in the presence of human plasma (A. baumannii ATCC 19,606 [1]): 31.25(31.25) µg/ml | cell viability ([2]; 1 × and 2 × MIC): 100% | cell viability ([2]; peptide 62.5 µg/mL): more than 70% | MBC, control (A. baumannii ATCC 19,606 [3]): 7.81(7.81) µg/ml | MIC, control (A. baumannii ATCC 19,606 [3]): 7.81(7.81) µg/ml | MBC in the presence of pepsin (A. baumannii ATCC 19,606 [3]; 37 °C, 1 h): 15.63(15.63) µg/ml | MIC in the presence of pepsin (A. baumannii ATCC 19,606 [3]; 37 °C, 1 h): 15.63(15.63) µg/ml | MBC in the presence of proteinase K (A. baumannii ATCC 19,606 [3]; [13]): 7.81(7.81) µg/ml | MIC in the presence of proteinase K (A. baumannii ATCC 19,606 [3]; [13]): 7.81(7.81) µg/ml | MBC in the presence of trypsin (A. baumannii ATCC 19,606 [3]; [14]): 7.81(7.81) µg/ml | MIC in the presence of trypsin (A. baumannii ATCC 19,606 [3]; [14]): 7.81(7.81) µg/ml

RLFRRVKKVAGKIAKRIWK-NH2 [AP19]
MBC in the presence of human plasma (A. baumannii ATCC 19,606 [1]): 250(250) µg/ml | MIC in the presence of human plasma (A. baumannii ATCC 19,606 [1]): 250(250) µg/ml | cell viability ([2]; all tested peptide concentrations (0.98 to 250 μg/ml)): 100% | MBC, control (A. baumannii ATCC 19,606 [3]): 7.81(7.81) µg/ml | MIC, control (A. baumannii ATCC 19,606 [3]): 7.81(7.81) µg/ml | MBC in the presence of pepsin (A. baumannii ATCC 19,606 [3]; 37 °C, 1 h): 31.25(31.25) µg/ml | MIC in the presence of pepsin (A. baumannii ATCC 19,606 [3]; 37 °C, 1 h): 31.25(31.25) µg/ml | MIC [4]: 3.91 µg/mL | MIC [5]: 1.95 µg/mL | MIC [6]: 3.91 µg/mL | MIC [7]: 7.81 µg/mL | MIC [8]: 3.91 µg/mL | MIC [9]: 3.91 µg/mL | MIC [10]: 15.63 µg/mL | MIC [11]: 1.95 µg/mL | MIC [12]: 7.81 µg/mL
